Test: Solubility of midodrine hydrochloride in various solvents and pH values
Assay type: physicochemical

Measured: solubility

COc1ccc(OC)c(C(O)CNC(=O)CN)c1.Cl (stereo not drawn) [Midodrine Hydrochloride, 2-amino-N-[2-(2,5-dimethoxyphenyl) -2-hydroxyethyl]acetamide hydrochloride]
> 10000 µg/mL: 0.01N hydrochloric acid, simulated gastric fluid | 0.1N hydrochloric acid, simulated gastric fluid | Simulated Gastric Fluid (SGF) pH 1.25 | aqueous buffer, Potassium Phosphate Buffer, pH 6.0 | potassium phosphate buffer, pH 2.5, aqueous buffer | potassium phosphate buffer, pH 3.5, aqueous buffer | potassium phosphate buffer, pH 4.5, aqueous buffer | potassium phosphate buffer, pH 5.5, aqueous buffer | potassium phosphate buffer, pH 6.8, aqueous buffer | potassium phosphate buffer, pH 7.2, aqueous buffer | potassium phosphate buffer, pH 7.5, aqueous buffer | water
